The target of test [1] is T1, wild-type ALK2 (aa172-499) (Homo sapiens (Human), UniProt Q04771). As to the kind of experiment: ADPGlo biochemical autophosphorylation assay, ALK2. As to conditions: 15 μm ATP, 60 min at 32° C. In general terms: ADP-Glo turns the ADP formed in a reaction into a luminescent signal.
Another test deals with ALK3 (aa198-525) (Homo sapiens (Human), UniProt P36894). Put plainly: ADPGlo biochemical autophosphorylation assay, ALK3. Particulars: 15 μm ATP, 60 min at 32° C.
Test [2] has as its target T1, wild-type ALK2 (aa172-499). Put plainly: Caliper biochemical peptide phosphorylation assay, ALK2. Particulars: 15 μm ATP, 60 min at 30° C.; read-out: ALK2 EPK (IC50).
The target in a further test is ALK1 (aa166-493) (Homo sapiens (Human), UniProt P37023). Put plainly: Caliper biochemical peptide phosphorylation assay, ALK1. As to conditions: 15 μm ATP, 60 min at 30° C.; read-out: ALK1 EPK (IC50).
Another test deals with ALK5 (aa162-503) (Homo sapiens (Human), UniProt P36897). As to the kind of experiment: Caliper biochemical peptide phosphorylation assay, ALK5. Particulars: 15 μm ATP, 60 min at 30° C.; read-out: ALK5 EPK (IC50).
Another test addresses ALK6 (aa168-495) (Homo sapiens (Human), UniProt O00238). Put plainly: Caliper biochemical peptide phosphorylation assay, ALK6. As to conditions: 15 μm ATP, 60 min at 30° C.; read-out: ALK6 EPK (IC50).
In test [3] the test system is BMP response element (BRE) luciferase reporter in HuH7 cells, BMP6 stimulated. As to the kind of experiment: BMP signaling reporter gene assay. As to conditions: Homo sapiens, Huh-7; HuH7 BRE-luciferase, BMP6 100 ng/ml, 5 hours; read-out: MSD BMP RGA IC50. It counts as cell-based.

Chain of ALK3 (aa198-525) (P36894 198-525): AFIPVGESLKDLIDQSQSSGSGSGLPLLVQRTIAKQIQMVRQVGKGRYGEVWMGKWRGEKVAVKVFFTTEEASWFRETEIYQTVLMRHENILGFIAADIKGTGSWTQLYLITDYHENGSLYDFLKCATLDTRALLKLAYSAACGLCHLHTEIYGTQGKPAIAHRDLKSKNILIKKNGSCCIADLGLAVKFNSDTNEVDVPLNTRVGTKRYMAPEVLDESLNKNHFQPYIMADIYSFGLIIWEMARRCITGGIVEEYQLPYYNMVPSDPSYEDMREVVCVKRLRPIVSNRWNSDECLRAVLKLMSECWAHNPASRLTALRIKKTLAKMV
T1 sequence (Q04771 172-499): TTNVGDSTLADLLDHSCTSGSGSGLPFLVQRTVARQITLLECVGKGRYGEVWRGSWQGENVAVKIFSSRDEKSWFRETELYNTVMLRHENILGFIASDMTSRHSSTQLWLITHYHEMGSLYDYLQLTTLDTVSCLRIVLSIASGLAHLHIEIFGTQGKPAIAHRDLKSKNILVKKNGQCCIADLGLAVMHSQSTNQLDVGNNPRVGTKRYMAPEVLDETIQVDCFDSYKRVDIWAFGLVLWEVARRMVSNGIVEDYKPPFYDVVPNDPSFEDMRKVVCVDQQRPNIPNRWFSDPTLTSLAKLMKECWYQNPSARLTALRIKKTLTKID
Chain of ALK1 (aa166-493) (P37023 166-493): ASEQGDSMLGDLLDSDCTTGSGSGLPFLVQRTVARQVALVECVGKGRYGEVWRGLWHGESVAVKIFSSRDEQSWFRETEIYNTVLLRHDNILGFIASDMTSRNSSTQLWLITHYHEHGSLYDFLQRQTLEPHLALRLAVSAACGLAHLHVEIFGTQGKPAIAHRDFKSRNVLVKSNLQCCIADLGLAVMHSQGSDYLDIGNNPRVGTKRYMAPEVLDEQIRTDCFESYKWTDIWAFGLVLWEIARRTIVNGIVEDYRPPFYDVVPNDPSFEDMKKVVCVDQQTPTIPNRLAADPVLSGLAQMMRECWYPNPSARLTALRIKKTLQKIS
Chain of ALK6 (aa168-495) (O00238 168-495): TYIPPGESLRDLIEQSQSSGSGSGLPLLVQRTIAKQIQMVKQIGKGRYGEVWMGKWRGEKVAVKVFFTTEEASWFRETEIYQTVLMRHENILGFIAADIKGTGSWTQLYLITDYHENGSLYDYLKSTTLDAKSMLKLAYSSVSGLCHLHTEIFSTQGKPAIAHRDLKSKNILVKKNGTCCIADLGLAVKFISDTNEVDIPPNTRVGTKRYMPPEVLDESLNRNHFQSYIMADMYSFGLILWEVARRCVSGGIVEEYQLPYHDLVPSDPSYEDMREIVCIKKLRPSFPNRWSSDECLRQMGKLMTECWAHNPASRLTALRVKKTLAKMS
Chain of ALK5 (aa162-503) (P36897 162-503): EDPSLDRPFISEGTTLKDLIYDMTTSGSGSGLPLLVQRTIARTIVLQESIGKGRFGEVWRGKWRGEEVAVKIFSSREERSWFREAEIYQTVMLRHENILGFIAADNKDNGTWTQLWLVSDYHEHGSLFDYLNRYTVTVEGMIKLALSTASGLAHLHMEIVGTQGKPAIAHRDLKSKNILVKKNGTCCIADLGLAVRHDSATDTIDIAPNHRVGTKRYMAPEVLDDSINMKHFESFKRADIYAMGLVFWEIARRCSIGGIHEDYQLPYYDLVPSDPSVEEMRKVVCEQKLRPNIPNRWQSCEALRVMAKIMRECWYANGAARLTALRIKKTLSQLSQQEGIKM

On to `CC(C)N1C[C@H]2C[C@@]2(c2ccc(-c3cnc(N)c(C(=O)N[C@H]4CC[C@](C)(O)CC4)c3)cc2)C1` [Example 24, 2-amino-N-((1r,4R)-4-hydroxy-4-methylcyclohexyl)-5-(4-((1R,5S)-3-isopropyl-3-azabicyclo[3.1.0]hexan-1-yl)phenyl)nicotinamide], for which the IC50 (usually the midpoint of a concentration-inhibition curve) amounted to 11 nM in test [1]; 6480 nM against ALK3 (aa198-525); 16 nM in test [2]; 543 nM at ALK1 (aa166-493); 6800 nM at ALK5 (aa162-503); 7300 nM at ALK6 (aa168-495). Also, in test [3], the IC50 turned out to be 81 nM.

Turning to `CC(F)(F)CN1C[C@H]2C[C@@]2(c2ccc(-c3cnc(N)c(C(=O)N[C@H]4CC[C@H](O)CC4)c3)cc2)C1` [Example 50, 2-amino-5-(4-((1R,5S)-3-(2,2-difluoropropyl)-3-azabicyclo[3.1.0]hexan-1-yl)phenyl)-N-((1r,4R)-4-hydroxycyclohexyl)nicotinamide], the concentration for half-maximal inhibition (IC50) in test [1] was 11 nM; on ALK3 (aa198-525), 2400 nM; in test [2] it was 37 nM; at ALK1 (aa166-493), 500 nM; on ALK5 (aa162-503), 6400 nM; at ALK6 (aa168-495), 5100 nM. In addition, the IC50 in test [3] turned out to be 825 nM.

Consider `Nc1ncc(-c2cccc(C(=O)N3CCOCC3)c2)cc1C(=O)NC1CCCCC1` [Example 84, 2-amino-N-cyclohexyl-5-(3-(morpholine-4-carbonyl)phenyl)nicotinamide], for which the IC50 in test [1] turned out to be 2400 nM; against ALK3 (aa198-525), 21900 nM; in test [2], 350 nM; on ALK1 (aa166-493), 20200 nM; on ALK5 (aa162-503), 20200 nM; at ALK6 (aa168-495), 20200 nM. Further, the IC50 in test [3] came to 9500 nM.

As for `C#CCN1C[C@H]2C[C@@]2(c2ccc(-c3cnc(N)c(C(=O)N[C@H]4CC[C@H](O)CC4)c3)cc2)C1` [Example 54, 2-amino-N-((1r,4R)-4-hydroxycyclohexyl)-5-(4-((1R,5S)-3-(prop-2-yn-1-yl)-3-azabicyclo[3.1.0]hexan-1-yl)phenyl)nicotinamide], the IC50 in test [1] stood at 11 nM; at ALK3 (aa198-525), 920 nM; in test [2], 33 nM; at ALK1 (aa166-493), 140 nM; on ALK5 (aa162-503), 5300 nM; at ALK6 (aa168-495), 3500 nM. For the same compound, the IC50 in test [3] was found to be 395 nM.

Take `Nc1ncc(-c2ccc(N3CCCCC3)cc2)cc1C(=O)NC1CCCCC1` [Example 61, 2-amino-N-cyclohexyl-5-(4-(piperidin-1-yl)phenyl)nicotinamide]: the IC50 in test [1] came to 43 nM; at ALK3 (aa198-525), 2100 nM; in test [2], 35 nM; on ALK1 (aa166-493), 940 nM; at ALK5 (aa162-503), 7200 nM; on ALK6 (aa168-495) it was 20200 nM. Also, the concentration for half-maximal inhibition (IC50) in test [3] amounted to 2300 nM.

Turning to `Nc1ncc(-c2ccc([C@@]34C[C@@H]3CN(CCC(F)(F)F)C4)cc2)cc1C(=O)N[C@H]1CC[C@H](O)CC1` [Example 47, 2-amino-N-((1r,4R)-4-hydroxycyclohexyl)-5-(4-((1R,5S)-3-(3,3,3-trifluoropropyl)-3-azabicyclo[3.1.0]hexan-1-yl)phenyl)nicotinamide], the IC50 in test [1] was found to be 21 nM; against ALK3 (aa198-525) it was 1300 nM; in test [2], 25 nM; on ALK1 (aa166-493), 290 nM; on ALK5 (aa162-503) it was 4700 nM; on ALK6 (aa168-495) it was 3500 nM. In test [3], the IC50 is 130 nM.

Take `C[C@@H]1CCCN1Cc1ccc(-c2cnc(N)c(C(=O)N[C@H]3CC[C@](C)(O)CC3)c2)cc1Cl` [Example 85, 2-amino-5-(3-chloro-4-(((R)-2-methylpyrrolidin-1-yl)methyl)phenyl)-N-((1r,4R)-4-hydroxy-4-methylcyclohexyl)nicotinamide]: the IC50 turned out to be 190 nM in test [1]; 15100 nM at ALK3 (aa198-525); 170 nM in test [2]; 9800 nM on ALK1 (aa166-493); 10000 nM on ALK5 (aa162-503); 10000 nM at ALK6 (aa168-495). Moreover, the IC50 in test [3] is 860 nM.

Consider `Nc1ncc(-c2ccc([C@]34C[C@H]3CN(CCN3CCOCC3)C4)cc2)cc1C(=O)N[C@H]1CC[C@H](O)CC1` [Example 13, 2-amino-N-((1r,4S)-4-hydroxycyclohexyl)-5-(4-((1S,5R)-3-(2-morpholinoethyl)-3-azabicyclo[3.1.0]hexan-1-yl)phenyl)nicotinamide], for which the IC50 came out at 8 nM in test [1]; 1400 nM against ALK3 (aa198-525); 13 nM in test [2]; 140 nM at ALK1 (aa166-493); 3100 nM at ALK5 (aa162-503); 3000 nM on ALK6 (aa168-495). Also, the half-maximal inhibitory concentration (IC50) in test [3] amounted to 78 nM.

On to `C[C@@H](c1ccc(-c2cnc(N)c(C(=O)N[C@H]3CC[C@H](O)CC3)c2)cc1)N1CC2(COC2)C1` [Example 4, 5-(4-((S)-1-(2-oxa-6-azaspiro[3.3]heptan-6-yl)ethyl)phenyl)-2-amino-N-((1r,4R)-4-hydroxycyclohexyl)nicotinamide], for which the IC50 came to 5 nM in test [1]; 830 nM at ALK3 (aa198-525); 13 nM in test [2]; 175 nM at ALK1 (aa166-493); 2450 nM on ALK5 (aa162-503); 1850 nM on ALK6 (aa168-495). Moreover, the IC50 in test [3] turned out to be 108 nM.

`Nc1ncc(-c2ccc([C@]34C[C@H]3CN(CCCN3CCOCC3)C4)cc2)cc1C(=O)N[C@H]1CC[C@H](O)CC1` [Example 5, 2-amino-N-((1r,4S)-4-hydroxycyclohexyl)-5-(4-((1S,5R)-3-(3-morpholinopropyl)-3-azabicyclo[3.1.0]hexan-1-yl)phenyl)nicotinamide]: the IC50 in test [1] is 7 nM; at ALK3 (aa198-525), 1100 nM; in test [2] it was 10 nM; on ALK1 (aa166-493) it was 81 nM; at ALK5 (aa162-503), 2200 nM; at ALK6 (aa168-495) it was 2500 nM. Also, the IC50 in test [3] worked out at 120 nM.

Turning to `CC(F)(F)CN1C[C@@H]2C[C@]2(c2ccc(-c3cnc(N)c(C(=O)N[C@H]4CC[C@H](O)CC4)c3)cc2)C1` [Example 76, 2-amino-5-(4-((1S,5R)-3-(2,2-difluoropropyl)-3-azabicyclo[3.1.0]hexan-1-yl)phenyl)-N-((1r,4S)-4-hydroxycyclohexyl)nicotinamide], the IC50 in test [1] came out at 34 nM; on ALK3 (aa198-525) it was 3200 nM; in test [2] it was 79 nM; at ALK1 (aa166-493), 370 nM; on ALK5 (aa162-503), 9400 nM; on ALK6 (aa168-495) it was 8400 nM. In addition, the IC50 in test [3] was determined as 2300 nM.

Take `Cc1cc(CN2CCC[C@H]2C)ccc1-c1cnc(N)c(C(=O)N[C@H]2CC[C@](C)(O)CC2)c1` [Example 87, 2-amino-N-((1r,4R)-4-hydroxy-4-methylcyclohexyl)-5-(2-methyl-4-(((R)-2-methylpyrrolidin-1-yl)methyl)phenyl)nicotinamide]: the IC50 in test [1] is 880 nM; on ALK3 (aa198-525) it was 15100 nM; in test [2] it was 630 nM; at ALK1 (aa166-493) it was 10000 nM; at ALK5 (aa162-503), 10000 nM; at ALK6 (aa168-495) it was 10000 nM. The IC50 in test [3] was determined as 3550 nM.

(Values after patent publication US10710980B2, “Aminopyridine derivatives and their use as selective ALK-2 inhibitors” (priority 2016, dated 2020).)
